Reference: publication PMC5053896 (Journal of the American Chemical Society, 2016)
Converted amounts (≈) assume the structure as drawn. Like-named read-outs stand apart in the source and are kept apart here.

What was measured:
Staphylococcus aureus = Staphylococcus aureus infected mice; cited from earlier work
[1] = test system: Gram-positive and Gram-negative bacteria; details: both Gram-positive and Gram-negative bacteria; cited from earlier work
M. tuberculosis = M. tuberculosis growth inhibition, microdilution broth method; assay type: cell-based; details: for M. tuberculosis growth inhibition MIC50: microdilution broth method
[2] = biological target: WecA (polyprenyl phosphate-GlcNAc-1-phosphate transferase) (Mycobacterium tuberculosis, UniProt P9WMW5); assay type: biochemical, M. tuberculosis; details: for IC50: read-out: WecA inhibition IC50
MurX = MurX (Mycobacterium tuberculosis, UniProt P9WMW7); assay: biochemical; assay type: biochemical, M. tuberculosis
MraY = details: read-out: MraY enzyme inhibitory activity IC50; cited from earlier work
bacteria = details: cited from earlier work

In the case of CO[C@H]1[C@H](O[C@H]([C@H]2O[C@@H](n3ccc(=O)[nH]c3=O)[C@H](O)[C@@H]2O)[C@H](NCCCNC(=O)[C@@H](NC(=O)[C@@H](NC(=O)N[C@H](C(=O)O)C(C)C)[C@@H]2CCN=C(N)N2)[C@@H](OC(=O)CCCCCCCCCCCCN(O)C(=N)N)C(C)C)C(=O)O)O[C@H](CN)[C@H]1O [Muraymycin A1], the ED50 (Staphylococcus aureus) is given as 1.1 mg/kg and the bactericidal activity [1] is given as “bactericidal activity”.
For “Muraymycin D1-amide [Muraymycin D1-amide (2)]”, the “M. tuberculosis growth inhibition MIC50” value (M. tuberculosis) was 1.56 µg/mL and the “M. tuberculosis growth inhibition MIC50” value (M. tuberculosis; listed as 2) was 1.56 to 6.25 µg/mL.
With COC1C(C(OC2OC(C(=O)NC3CCCCNC3=O)=CC(O)C2O)C(N)=O)OC(n2ccc(=O)[nH]c2=O)C1OC (stereo not shown) [UT-01320] the “M. tuberculosis growth inhibition MIC50” value (M. tuberculosis) was 1.56 µg/mL and the IC50 [2] was 60 nM.
For “Muraymycin D1-diamide [Muraymycin D1-diamide (3)]”, the “M. tuberculosis growth inhibition MIC50” value (M. tuberculosis) was 6.25 µg/mL, the “M. tuberculosis growth inhibition MIC50” value (M. tuberculosis; listed as 3) was 1.56 to 6.25 µg/mL and the “Inhibition of WecA enzyme relative to 1 and 2” value [2] was ~ 10 times.
With CO[C@H]1[C@@H](O)[C@H](n2ccc(=O)[nH]c2=O)O[C@@H]1[C@@H](O[C@H]1OC(C(=O)N[C@H]2CCCCNC2=O)=C[C@H](O)[C@@H]1O)C(N)=O [Capuramycin] the IC50 (MurX) was 220 nM and the MIC50 (M. tuberculosis; Mycobacterium tuberculosis, read-out: M. tuberculosis growth inhibition MIC50) was 6.25 µg/mL (≈ 11 µM).
With CO[C@H]1[C@H](O[C@H]([C@H]2O[C@@H](n3ccc(=O)[nH]c3=O)[C@H](O)[C@@H]2O)[C@H](NCCCNC(=O)[C@H](CC(C)C)NC(=O)[C@@H](NC(=O)N[C@H](C(=O)O)C(C)C)[C@@H]2CCN=C(N)N2)C(=O)O)O[C@H](CN)[C@H]1O [Muraymycin D1 (1), Muraymycin D1] the “M. tuberculosis growth inhibition MIC50” value (M. tuberculosis) was 1.56 µg/mL, the “M. tuberculosis growth inhibition MIC50” value (M. tuberculosis; listed as 1) was 1.56 to 6.25 µg/mL and the IC50 [2] was 690 nM.
In the case of CC(C)C[C@H](NC(=O)[C@@H](NC(=O)N[C@H](C(=O)O)C(C)C)[C@@H]1CCN=C(N)N1)C(=O)NCCCN[C@H](C(=O)O)[C@H](O[C@@H]1O[C@H](CN)[C@@H](O)[C@H]1O)[C@H]1O[C@@H](n2ccc(=O)[nH]c2=O)[C@H](O)[C@@H]1O [muraymycin D2], the IC50 (MraY) is listed as 10 nM and the antibacterial activity (bacteria) is listed as “no significant antibacterial activity”.
With Tunicamycin the IC50 (MurX; read-out: MurX inhibition IC50) was 3380 nM, the “M. tuberculosis growth inhibition MIC50” value (M. tuberculosis) was 3.13 µg/mL and the IC50 [2] was 150 nM.
